Data set [1] has as its system MCF7. Put plainly: Antiproliferative activity human ER-positive MCF7 cells after 2 days by MTT assay. It counts as functional, cell-based. The following applies: MCF7, 48 h.
Data set [2] has as its system MDA-MB-231. Put plainly: Antiproliferative activity human ER-negative MDA-MB-231 cells after 2 days by MTT assay. The settings on record: MDA-MB-231, 48 h. It counts as functional, cell-based.
Data set [3] is described as follows: Antiproliferative activity mouse B16F10 cells after 2 days by MTT assay. It counts as functional, cell-based. The following applies: B16-F10, 48 h.
A short description of data set [4]: Antiproliferative activity human MIAPaCa2 cells after 2 days by MTT assay. It counts as functional, cell-based. The following applies: MIA PaCa-2, 48 h.
The subject of data set [5] is CHO. Put plainly: Antiproliferative activity against CHO cells after 2 days by MTT assay. It counts as cell-based. The following applies: Cricetulus griseus, 48 h.
A short description of data set [6]: Antiproliferative activity mouse NIH/3T3 cells after 2 days by MTT assay. It counts as cell-based. The following applies: NIH3T3, 48 h.
The test system of data set [7] is B16-F10. Put plainly: Induction of apoptosis in mouse B16F10 cells assessed as necrotic cells at 5 uM after 24 hrs by FITC-annexin V/PI staining based flow cytometry (RVB = 5.12%). It counts as functional.
The subject of data set [8] is B16-F10. Put plainly: Induction of apoptosis in mouse B16F10 cells assessed as late apoptotic cells at 5 uM after 24 hrs by FITC-annexin V/PI staining based flow cytometry (RVB = 4.94%). It counts as functional.
Data set [9] deals with B16-F10. Put plainly: Induction of apoptosis in mouse B16F10 cells assessed as early apoptotic cells at 5 uM after 24 hrs by FITC-annexin V/PI staining based flow cytometry (RVB = 0.36%). It counts as functional.
Data set [10] concerns B16-F10. The data set can be described thus: Induction of apoptosis in mouse B16F10 cells assessed as viable cells at 5 uM after 24 hrs by FITC-annexin V/PI staining based flow cytometry (RVB = 89.58%). It counts as functional. The following applies: B16-F10, 24 h, read-out: Activity.
Data set [11] deals with MDA-MB-231. The data set can be described thus: Induction of apoptosis in human ER-negative MDA-MB-231 cells assessed as necrotic cells at 5 uM after 24 hrs by FITC-annexin V/PI staining based flow cytometry (RVB = 2.21%). It counts as functional.
Data set [12] concerns MDA-MB-231. The data set can be described thus: Induction of apoptosis in human ER-negative MDA-MB-231 cells assessed as late apoptotic cells at 5 uM after 24 hrs by FITC-annexin V/PI staining based flow cytometry (RVB = 0.99%). It counts as functional.
Data set [13] concerns MDA-MB-231. Put plainly: Induction of apoptosis in human ER-negative MDA-MB-231 cells assessed as early apoptotic cells at 5 uM after 24 hrs by FITC-annexin V/PI staining based flow cytometry (RVB = 1.15%). It counts as functional.
Data set [14] has as its system MDA-MB-231. The data set can be described thus: Induction of apoptosis in human ER-negative MDA-MB-231 cells assessed as viable cells at 5 uM after 24 hrs by FITC-annexin V/PI staining based flow cytometry (RVB =95.66%). It counts as functional. The settings on record: MDA-MB-231, 24 h, read-out: Activity.
Data set [15] relates to MCF7. The data set can be described thus: Induction of apoptosis in human ER-positive MCF7 cells assessed as necrotic cells at 5 uM after 24 hrs by FITC-annexin V/PI staining based flow cytometry (RVB = 3.24%). It counts as functional.
Data set [16] relates to MCF7. The data set can be described thus: Induction of apoptosis in human ER-positive MCF7 cells assessed as late apoptotic cells at 5 uM after 24 hrs by FITC-annexin V/PI staining based flow cytometry (RVB = 3.68%). It counts as functional.
The test system of data set [17] is MCF7. Put plainly: Induction of apoptosis in human ER-positive MCF7 cells assessed as early apoptotic cells at 5 uM after 24 hrs by FITC-annexin V/PI staining based flow cytometry (RVB = 0.86%). It counts as functional.
Data set [18] has as its system MCF7. The data set can be described thus: Induction of apoptosis in human ER-positive MCF7 cells assessed as viable cells at 5 uM after 24 hrs by FITC-annexin V/PI staining based flow cytometry (RVB = 92.22%). The following applies: MCF7, 24 h, read-out: Activity. It counts as functional.
In data set [19] the test system is RAW264.7. The data set can be described thus: Induction of apoptosis in mouse RAW264.7 cells assessed as necrotic cells at 5 uM after 24 hrs by FITC-annexin V/PI staining based flow cytometry (RVB = 0.29%). It counts as cell-based. The settings on record: raw264.7, 24 h.
Data set [20] concerns RAW264.7. The data set can be described thus: Induction of apoptosis in mouse RAW264.7 cells assessed as late apoptotic cells at 5 uM after 24 hrs by FITC-annexin V/PI staining based flow cytometry (RVB = 0.51%). The settings on record: raw264.7, 24 h. It counts as cell-based.
Data set [21] concerns RAW264.7. The data set can be described thus: Induction of apoptosis in mouse RAW264.7 cells assessed as early apoptotic cells at 5 uM after 24 hrs by FITC-annexin V/PI staining based flow cytometry (RVB = 0.69%). It counts as cell-based. The settings on record: raw264.7, 24 h.
Data set [22] in a line: Induction of apoptosis in mouse RAW264.7 cells assessed as viable cells at 5 uM after 24 hrs by FITC-annexin V/PI staining based flow cytometry (RVB = 98.51%). It counts as cell-based. The following applies: read-out: Activity.
For data set [23], the system named is CHO. The data set can be described thus: Induction of apoptosis in CHO cells assessed as necrotic cells at 5 uM after 24 hrs by FITC-annexin V/PI staining based flow cytometry (RVB = 0.79%). It counts as cell-based, Cricetulus griseus. The following applies: chinese hamster.
Data set [24] deals with CHO. The data set can be described thus: Induction of apoptosis in CHO cells assessed as late apoptotic cells at 5 uM after 24 hrs by FITC-annexin V/PI staining based flow cytometry (RVB = 0.00%). It counts as cell-based, Cricetulus griseus. The following applies: chinese hamster.
In data set [25] the test system is CHO. Put plainly: Induction of apoptosis in CHO cells assessed as early apoptotic cells at 5 uM after 24 hrs by FITC-annexin V/PI staining based flow cytometry (RVB = 0.00%). It counts as cell-based, Cricetulus griseus. The following applies: chinese hamster.
Data set [26] is described as follows: Induction of apoptosis in CHO cells assessed as viable cells at 5 uM after 24 hrs by FITC-annexin V/PI staining based flow cytometry (RVB = 99.21%). It counts as cell-based, Cricetulus griseus. The following applies: chinese hamster, read-out: Activity.
Data set [27] deals with MCF7. The data set can be described thus: Cell cycle arrest in human ER-positive MCF7 cells assessed as accumulation at sub-G0 phase at 5 to 10 uM after 24 hrs by PI staining based flow cytometry. It counts as functional.
Data set [28] can be described thus: Cell cycle arrest in mouse B16F10 cells assessed as accumulation at sub-G0 phase at 5 to 10 uM after 24 hrs by PI staining based flow cytometry. The following applies: B16-F10. It counts as functional.
The subject of data set [29] is MCF7. The data set can be described thus: Cell cycle arrest in human ER-positive MCF7 cells assessed as reduction in accumulation at G0-G1 phase 5 to 10 uM after 24 hrs by PI staining based flow cytometry. It counts as functional.
Data set [30] can be described thus: Cell cycle arrest in mouse B16F10 cells assessed as reduction in accumulation at G0-G1 phase 5 to 10 uM after 24 hrs by PI staining based flow cytometry. It counts as functional. The following applies: B16-F10.
The subject of data set [31] is B16-F10. The data set can be described thus: Antitumor activity against mouse B16F10 cells inoculated in C57BL6J mouse assessed as tumor regression at 10 mg/kg, ip for 9 days. It counts as functional, organism-based. Further details: dose 10 mg/kg.
Data set [32] relates to B16-F10. Put plainly: Antitumor activity against mouse B16F10 cells expressing ER inoculated in C57BL6J mouse assessed as tumor regression at 10 mg/kg, ip for 9 days. It counts as functional, organism-based. Further details: dose 10 mg/kg.
Data set [33] deals with B16-F10. Put plainly: Antitumor activity against mouse B16F10 cells expressing ER inoculated in C57BL6J mouse assessed as tumor regression at 10 mg/kg, ip for 9 days in presence of estradiol. It counts as functional, organism-based. Further details: dose 10 mg/kg.
Data set [34] concerns B16-F10. Put plainly: Antitumor activity against mouse B16F10 cells inoculated in C57BL6J mouse assessed as tumor regression at 9.15 mg/kg, ip for 9 days. It counts as functional, organism-based. On the set-up: dose 9.15 mg/kg.

Structures are written as SMILES. Active and inactive are the calls of the source. No cut-off for these calls is given here.

For the compound `CCCCCCCCCCCC[N+](C)(CCCCCCCCCCCC)CCC[C@]1(O)CC[C@H]2[C@@H]3CCc4cc(O)ccc4[C@H]3CC[C@@]21C`, the IC50 stood at 6.23 µM in data set [1]; 6.02 µM in [2]; 5.79 µM in data set [3]; 7.36 µM in data set [4]; 90.8 µM in data set [5]; 85.4 µM in data set [6].

In the case of `CC/C(=C(\c1ccccc1)c1ccc(OCCN(C)C)cc1)c1ccccc1` [TAMOXIFEN], the IC50 in data set [1] is 4.67 µM; in data set [2] it was 39 µM; in data set [3], 64.9 µM; in data set [4], 33.1 µM; in data set [5] it was > 100 µM; in data set [6], > 100 µM.

Regarding `CCCCCC[N+](C)(CCCCCC)CCC[C@]1(O)CC[C@H]2[C@@H]3CCc4cc(O)ccc4[C@H]3CC[C@@]21C`, the IC50 in [1] is 7.85 µM; in [2], 6.78 µM; in data set [3] it was 6.56 µM; in data set [4], 8.51 µM; in [5], 60.4 µM; in data set [6], 45.8 µM.

On to `CCCCCCCCCC[N+](C)(CCCCCCCCCC)CCC[C@]1(O)CC[C@H]2[C@@H]3CCc4cc(O)ccc4[C@H]3CC[C@@]21C.[Cl-]`, for which the IC50 in [1] amounted to 1.36 µM; in [2] it was 1.14 µM; in [3] it was 0.5 µM; in [4] it was 0.46 µM; in data set [5], 81.7 µM; in data set [6] it was 47.7 µM. Also, the Activity in data set [7] was 2.87%; in data set [8] it was 67.86%; in [9], 2.53%; in data set [11], 3.39%; in data set [12], 50.63%; in [13], 21.65%. In addition, the Activity in [15] was 1.4%; in [16], 45.94%; in data set [17] it was 1.62%; in data set [19], 0.1%; in data set [20], 0.27%; in data set [21] it was 0.55%. The Activity in data set [23] was 0.86%; in [24] it was 0.23%; in data set [25] it was 0.56%. Besides, the viability at 5 µM in data set [10] stood at 26.7%; in data set [14], 24.3%; in data set [18], 51%. Moreover, the viability at 24 h, 5 µM in [22] was 99.1%; in [26] it was 98.3%. The result in data set [27], in [28], in data set [29] and in data set [30] was Active. The inhibition entry in data set [31] and in [32] was “Active” in each case. Moreover, in data set [33], the inhibition result is “inactive”.

Take `CCCCCCCCCCCCCC[N+](C)(CCCCCCCCCCCCCC)CCC[C@]1(O)CC[C@H]2[C@@H]3CCc4cc(O)ccc4[C@H]3CC[C@@]21C`: the IC50 was 17.4 µM in [1]; 38.7 µM in data set [2]; 32.3 µM in data set [3]; 42.5 µM in data set [4]; > 100 µM in data set [5]; 80.3 µM in [6].

As to `C[C@]12CC[C@@H]3c4ccc(O)cc4CC[C@H]3[C@@H]1CC[C@@H]2O` [ESTRADIOL], the half-maximal inhibitory concentration (IC50) was 27.4 µM in [1]; 33.5 µM in data set [2]; 39.8 µM in data set [3]; 42.9 µM in data set [4]; > 100 µM in [5]; > 100 µM in data set [6].

As for `CCCCCCCC[N+](C)(CCCCCCCC)CCC[C@]1(O)CC[C@H]2[C@@H]3CCc4cc(O)ccc4[C@H]3CC[C@@]21C`, the IC50 in [1] was 5.34 µM; in [2], 5.62 µM; in data set [3], 6.48 µM; in data set [4] it was 6.83 µM; in data set [5] it was 45.3 µM; in data set [6], 51 µM. Also, the inhibition entry in data set [34] was “Active”.

The values above are taken from ChEMBL document CHEMBL3351426, “Development of new estradiol-cationic lipid hybrids: ten-carbon twin chain cationic lipid is a more suitable partner for estradiol to elicit better anticancer activity” (Eur J Med Chem, 2014).
